Measurements as given in patent publication US6534496B1, “Thermogenic composition and benzazepine thermogenics” (Takeda Chemical Industries, Inc., priority 1997, dated 2003).
Structures can show the parent of a compound that is named as a salt. Marks after values point to notes of the source that are not given here.

Legend:
[1] = Assay of thermogenic activity in mice (Test Example 4); type: in vivo, male C57BL db/db mice; details: 1 mg/kg orally for 6 days; 24 hours-average regional temperature after the final administration; N=6
Protocol: The telethermometer (VltaView™, Mini-Mitter Co., Inc., USA) was inplanted subcutaneously border on the scapulae of male C57BL db/db mice (CLEA Japan Inc., N=6) anesthetized with ether. After 7 days acclimatization, 1 mg/kg of the compound which was obtained in Example 23, was orally administrated for 6 days. The 24 hours-average regional temperature after the final administration was measured. The control was administrated 0.5% methylcellulose solution.

[2] = Assay of reducing activity against weight gain of mice; type: in vivo, Male C57BL db/db mice
Protocol: Male C57BL db/db mice (CLEA Japan Inc., 10 weeks old) was pretreated for 7 days, with solid feed (CLEA Japan Inc., CE-2). After acclimatization, 0.3 mg/kg or 1.0 mg/kg of the compound which, was obtained in Example 23, was oraly administrated for 6 weeks. Body weight was measured after the final administration. After the measurement, total blood was successively drawn from the orbital vain, and the visceral fat was collected and its weight was measured. Statistics analysis was carried out with Dunnett anlalysis.

[3] = system: murine preadipocyte line (3T3-L1); experiment: Assay of intraadipocyte cAMP increasing activity using murine preadipocyte line (3T3-L1) (Test Example 3, compounds of the Examples); type: cell-based; details: Table 14
Protocol: The intraadipocyte cAMP concentration-increasing activity of the above compound (I) was determined in an assay system using murine preadipocyte line 3T3-L1. Thus, 3T3-L1 preadipocytes were seeded onto a 96-well microtiter plate (10,000 cells/well) and cultured for 5-6 days until a confluent growth was formed. Thereafter, the adipocytes were further cultured for 72 hours. The test compound (I) (10^−5M, 10^−6M, 10^−7M, 10^−8M, and 10^−9M) was then added and the plate was allowed to sit at 37° C. for 40 minutes. The cells were washed with 3 portions of phosphate buffer at 4° C. (100 μl/well). Then, 0.1 N hydrochloric acid was added and the cells were denatured at 95° C. for 10 minutes. From each well, 25 μl was aspirated and dissolved in 75 μl of the assay a buffer included in Cyclic AMP Enzyme Immunoassay Kit (Kayman Chemical Company, USA). Using a 50 μl portion as the sample, cAMP was assayed using the above-mentioned Kit. Thus, using a 96-well microtiter plate precoated with anti-rabbit IgG mouse antibody, the above sample (50 μl) as well as the Cyclic AMP Tracer (50 μl) and Cyclic AMP Rabbit Antibody (50 μl) from the Kit were added and the plate was incubated at room temperature for 18 hours. After asperation, the plate was washed with 4 portions of the wash buffer (400 μl/well). Then, 200 μl of the color reagent included in the Kit was added to each well and the plate was incubated at room temperature with'shaking for 60 minutes. After completion of the reaction, the absorbance was measured at 405 nm to quantitate the cAMP.
Each value is the mean result of 4 experiments. The test for statistical significance against the CAMP concentration of the control experiment (the test compound not added) was carried out by the known ANOVA. (* p<05 vs. control)
Using the compounds obtained in Examples 1 through 130, as well as their salts, their intraadipocyte cAMP increasing activities were assayed by the same procedure as in Test Example 1.

[4] = second line of Example 23, dose printed 0.3 mg/kg, orally for 6 weeks
[5] = concentration of test compound 10^−5M
[6] = concentration of test compound 10^−6M
[7] = concentration of test compound 10^−7M
[8] = concentration of test compound 10^−8M
[9] = concentration of test compound 10^−9M

For `CC(=O)N1CCC(CCC(=O)c2ccc3c(c2)CCN(Cc2ccccc2)CC3)CC1.Cl` [Example 23, 3-(1-Acetyl-4-piperidinyl)-1-[3-(phenylmethyl)-2,3,4,5-tetrahydro-1H-3-benzazepin-7-yl]-1-propanone Hydrochloride], the Regional temperature [1] was 35.54 °C, the “Amount of visceral fat (average ± S.E.)” value ([2]; 0.3 mg/kg orally for 6 weeks) was 5.47 ± 0.36 g and the “Body weight, ending date of administration (average ± S.E.)” value ([2]; 0.3 mg/kg orally for 6 weeks) was 40.87 ± 1.57 g. The “Body weight, starting date of administration (average ± S.E.)” value ([2]; 0.3 mg/kg orally for 6 weeks) was 40.21 ± 0.48 g, the “Amount of visceral fat (average ± S.E.)” value ([2]; 1.0 mg/kg orally for 6 weeks) was 5.13 ± 0.39 g and the “Body weight, ending date of administration (average ± S.E.)” value [2, 4] was 39.75 ± 1.55 g. For the same molecule, the “Body weight, starting date of administration (average ± S.E.)” value [2, 4] was 40.40 ± 0.69 g.
In the case of `CC(=O)N1CCC(CCC(=O)c2cc3c4c(c2)CCN4C(=O)CC3)CC1` [Example 66, 8-[3-(1-Acetyl-4-piperidinyl)-1-oxopropyl]-1,2,5,6-tetrahydro-4H-pyrrolo[3,2,1-ij]quinolin-4-one], the melting point is reported as 160 to 161 °C.
`CC(=O)N1CCC(CCC(=O)c2ccc3c4c2CCCC4CN3C(C)=O)CC1` (stereo not drawn) [Example 67, 3-(1-Acetyl-4-piperidinyl)-1-(1-acetyl-1,2,2a,3,4,5-hexahydrobenz[cd]indol-6-yl)-1-propanone] gave a melting point of 130 to 132 °C.
`CC(=O)N1CCC(CCC(=O)c2ccc3c(c2)CNc2ccccc2CC3)CC1` [Example 69, 3-(1-Acetyl-4-piperidinyl)-1-(5,6,11,12-tetrahydrodibenz[bf]azocin-8-yl)-1-propanone] showed a melting point of 153 to 155 °C.
`CC(=O)N1CCC(CCCC(=O)c2ccc3c(c2)CCN(Cc2ccccc2C)CC3)CC1` [Example 125, 4-(1-Acetyl-4-piperidinyl)-1-[3-[(2-methylphenyl)methyl]-2,3,4,5-tetrahydro-1H-3-benzazepin-7-yl]-1-butanone] gave a melting point of 94 to 95 °C.
With `Cc1ccccc1CN1CCc2ccc(C(=O)CCCC3CCN(Cc4ccccc4C)CC3)cc2CC1` [Example 127, 4-[1-[(2-Methylphenyl)methyl]-4-piperidinyl]-1-[3-[(2-methylphenyl)methyl]-2,3,4,5-tetrahydro-1H-3-benzazepin-7-yl]-1-butanone Dihydrochloride] the cAMP [3, 5] was 554.0* pmol/ml, the cAMP [3, 6] was 100.0* pmol/ml and the cAMP [3, 7] was 10.1* pmol/ml. It also gave a cAMP [3, 8] of 4.7 pmol/mL and a cAMP [3, 9] of 3.6 pmol/mL.
In the case of `Cc1ccccc1CN1CCc2ccc(C(=O)CCCC3CCN(Cc4cccc(Cl)c4)CC3)cc2CC1` [Example 130], the cAMP [3, 5] is reported as 430.6* pmol/ml, the cAMP [3, 6] is reported as 23.5* pmol/ml and the cAMP [3, 7] is reported as 5.7* pmol/ml. For the same molecule, the cAMP [3, 8] was 4.5 pmol/mL and the cAMP [3, 9] was 3.4 pmol/mL.
`O=C(CCCC1CCN(Cc2cccc(O)c2)CC1)c1ccc2c(c1)CCN(Cc1ccccc1)CC2` [Example 157, 4-[1-[(3-Hydroxyphenyl)methyl]-4-piperidinyl]-1-[3-(phenylmethyl)-2,3,4,5-tetrahydro-1H-3-benzazepin-7-yl]-1-butanone] gave a melting point of 88 to 94 °C.
Molecule `O=C(O)c1ccc(CN2CCC(CCCC(=O)c3ccc4c(c3)CCN(Cc3ccccc3)CC4)CC2)cc1` [Example 183, 4-[[4-[4-[3-(Phenylmethyl)-2,3,4,5-tetrahydro-1H-3-benzazepin-7-yl]-4-oxobutyl]-1-piperidinyl]methyl]benzoic Acid] has a melting point of 165 to 176 °C.
For `Cc1ccccc1CN1CCc2ccc(C(=O)CCCC3CCN(Cc4ccccc4C(=O)O)CC3)cc2CC1` [Example 253, 2-[[4-[4-[3-[(2-Methylphenyl)methyl]-2,3,4,5-tetrahydro-1H-3-benzazepin-,7-yl]-4-oxobutyl]-1-piperidinyl]methyl)benzoic Acid], the melting point was 129 to 132 °C.
Molecule `Cc1ccccc1CN1CCc2ccc(C(=O)CCCC3CCN(Cc4cccc(C(=N)N)c4)CC3)cc2CC1` [Example 260] has a melting point of 150 to 152 °C.
`N#Cc1ccccc1CN1CCc2ccc(C(=O)CCCC3CCN(Cc4ccccc4Cl)CC3)cc2CC1` [Example 265, 4-[1-[(2-Chlorophenyl)methyl]-4-piperidinyl]-1-[3-[(2-cyanophenyl)methyl]-2,3 4,5-tetrahydro-1H-3-benzazepin-7-yl]-1-butanone] gave a melting point of 103 to 104 °C.
`N#Cc1cccc(CN2CCc3ccc(C(=O)CCCC4CCN(Cc5ccccc5Cl)CC4)cc3CC2)c1` [Example 267, 4-[1-[(2-Chlorophenyl)methyl]-4-piperidinyl]-1-[3-[(3-cyanophenyl)methyl]-2,3,4,5-tetrahydro-1H-3-benzazepin-7-yl]-1-butanone] gave a melting point of 121 to 122 °C.
